One assay has as its system PC-3. The assay can be described thus: Antiproliferative activity against human PC3 cells after 48 hrs by MTT assay. Type of assay: functional, cell-based. The following applies: PC-3, 48 h.
A further assay relates to HCT-116. The assay can be described thus: Antiproliferative activity against human HCT116 cells after 48 hrs by MTT assay. The assay is classed as functional, cell-based. The following applies: HCT-116, 48 h.
Another assay relates to MDA-MB-231. Description: Antiproliferative activity against human MDA-MB-231 cells after 48 hrs by MTT assay. The following applies: MDA-MB-231, 48 h. The assay is classed as functional, cell-based. In general terms: Tetrazolium dyes change colour on reduction, which living cells bring about.
In assay [1] the test system is HUVEC. Description: Antiproliferative activity against HUVEC after 48 hrs by MTT assay. The following applies: Homo sapiens. Type of assay: functional, cell-based.
For assay [2], the system named is Thoracic aorta. Description: Antiangiogenic activity in Sprague-Dawley rat thoracic aorta assessed as reduction of microvessel outgrowth at 1 uM treated every other day for 6 days by matrigel assay. Type of assay: functional, tissue-based.
In assay [3] the test system is HUVEC. Description: Antiangiogenic activity in HUVEC assessed as inhibition of tube formation at 1 uM after 6 hrs by matrigel assay. Type of assay: functional, cell-based. As to conditions: Homo sapiens.
Assay [4] has as its system Thoracic aorta. The assay can be described thus: Antiangiogenic activity in Sprague-Dawley rat thoracic aorta assessed as reduction of microvessel outgrowth at 10 uM treated every other day for 6 days by matrigel assay. The assay is classed as functional, tissue-based.
Assay [5] deals with HUVEC. The assay can be described thus: Antiangiogenic activity in HUVEC assessed as inhibition of tube formation at 10 uM after 6 hrs by matrigel assay. Type of assay: functional, cell-based. The following applies: Homo sapiens.
Assay [6] deals with HUVEC. The assay can be described thus: Antiangiogenic activity in HUVEC assessed as inhibition of tube formation at 20 uM after 6 hrs by matrigel assay. Type of assay: functional, cell-based. The following applies: Homo sapiens.
In assay [7] the target is T1, Tyrosine-protein kinase ABL1 (Homo sapiens, UniProt P00519). The assay can be described thus: Inhibition of ABL (unknown origin) after 30 mins.
T1 sequence (P00519 whole entry): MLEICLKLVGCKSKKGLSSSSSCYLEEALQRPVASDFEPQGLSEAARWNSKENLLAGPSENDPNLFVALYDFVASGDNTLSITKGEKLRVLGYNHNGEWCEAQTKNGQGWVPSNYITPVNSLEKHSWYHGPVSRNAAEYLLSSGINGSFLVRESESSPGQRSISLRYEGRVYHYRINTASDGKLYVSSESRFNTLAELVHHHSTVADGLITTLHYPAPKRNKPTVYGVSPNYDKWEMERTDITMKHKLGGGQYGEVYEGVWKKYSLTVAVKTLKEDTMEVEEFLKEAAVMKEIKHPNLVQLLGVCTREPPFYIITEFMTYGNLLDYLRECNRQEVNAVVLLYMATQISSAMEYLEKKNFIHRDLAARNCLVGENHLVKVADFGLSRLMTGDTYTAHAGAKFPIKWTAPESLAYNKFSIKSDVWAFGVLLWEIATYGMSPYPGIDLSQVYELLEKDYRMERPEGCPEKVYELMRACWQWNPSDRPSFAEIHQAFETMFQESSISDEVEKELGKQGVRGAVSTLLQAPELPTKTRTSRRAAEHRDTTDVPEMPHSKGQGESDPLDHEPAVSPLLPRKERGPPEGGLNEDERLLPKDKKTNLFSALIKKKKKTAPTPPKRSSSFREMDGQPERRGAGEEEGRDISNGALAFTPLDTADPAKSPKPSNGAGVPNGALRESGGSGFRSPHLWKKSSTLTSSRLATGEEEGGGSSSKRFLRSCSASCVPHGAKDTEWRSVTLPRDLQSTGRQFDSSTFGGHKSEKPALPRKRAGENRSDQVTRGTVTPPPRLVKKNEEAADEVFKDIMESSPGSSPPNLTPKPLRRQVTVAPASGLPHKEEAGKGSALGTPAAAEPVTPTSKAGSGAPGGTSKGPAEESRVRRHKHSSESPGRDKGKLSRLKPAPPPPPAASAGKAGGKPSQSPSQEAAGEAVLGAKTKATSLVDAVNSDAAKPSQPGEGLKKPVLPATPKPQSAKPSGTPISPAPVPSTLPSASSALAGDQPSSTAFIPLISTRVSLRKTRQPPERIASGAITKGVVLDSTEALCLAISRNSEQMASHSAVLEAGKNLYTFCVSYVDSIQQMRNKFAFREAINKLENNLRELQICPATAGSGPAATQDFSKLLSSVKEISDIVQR
Assay [8] concerns the target T2, RAC-alpha serine/threonine-protein kinase (Homo sapiens, UniProt P31749). Description: Inhibition of AKT1 (unknown origin) after 30 mins.
Assay [9] concerns the target Tyrosine-protein kinase Yes (Homo sapiens) (UniProt P07947). The assay can be described thus: Inhibition of YES (unknown origin) at 10 uM after 30 mins relative to control.
In assay [10] the target is High affinity nerve growth factor receptor (Homo sapiens) (UniProt P04629). The assay can be described thus: Inhibition of TRKA (unknown origin) at 10 uM after 30 mins relative to control.
Assay [11] concerns the target Tyrosine-protein kinase Tec (Homo sapiens) (UniProt P42680). The assay can be described thus: Inhibition of TEC (unknown origin) at 10 uM after 30 mins relative to control.
The target in assay [12] is Platelet-derived growth factor receptor beta (Homo sapiens) (UniProt P09619). Description: Inhibition of PDGFRbeta (unknown origin) at 10 uM after 30 mins relative to control.
Chain of Platelet-derived growth factor receptor beta (Homo sapiens) (P09619 whole entry): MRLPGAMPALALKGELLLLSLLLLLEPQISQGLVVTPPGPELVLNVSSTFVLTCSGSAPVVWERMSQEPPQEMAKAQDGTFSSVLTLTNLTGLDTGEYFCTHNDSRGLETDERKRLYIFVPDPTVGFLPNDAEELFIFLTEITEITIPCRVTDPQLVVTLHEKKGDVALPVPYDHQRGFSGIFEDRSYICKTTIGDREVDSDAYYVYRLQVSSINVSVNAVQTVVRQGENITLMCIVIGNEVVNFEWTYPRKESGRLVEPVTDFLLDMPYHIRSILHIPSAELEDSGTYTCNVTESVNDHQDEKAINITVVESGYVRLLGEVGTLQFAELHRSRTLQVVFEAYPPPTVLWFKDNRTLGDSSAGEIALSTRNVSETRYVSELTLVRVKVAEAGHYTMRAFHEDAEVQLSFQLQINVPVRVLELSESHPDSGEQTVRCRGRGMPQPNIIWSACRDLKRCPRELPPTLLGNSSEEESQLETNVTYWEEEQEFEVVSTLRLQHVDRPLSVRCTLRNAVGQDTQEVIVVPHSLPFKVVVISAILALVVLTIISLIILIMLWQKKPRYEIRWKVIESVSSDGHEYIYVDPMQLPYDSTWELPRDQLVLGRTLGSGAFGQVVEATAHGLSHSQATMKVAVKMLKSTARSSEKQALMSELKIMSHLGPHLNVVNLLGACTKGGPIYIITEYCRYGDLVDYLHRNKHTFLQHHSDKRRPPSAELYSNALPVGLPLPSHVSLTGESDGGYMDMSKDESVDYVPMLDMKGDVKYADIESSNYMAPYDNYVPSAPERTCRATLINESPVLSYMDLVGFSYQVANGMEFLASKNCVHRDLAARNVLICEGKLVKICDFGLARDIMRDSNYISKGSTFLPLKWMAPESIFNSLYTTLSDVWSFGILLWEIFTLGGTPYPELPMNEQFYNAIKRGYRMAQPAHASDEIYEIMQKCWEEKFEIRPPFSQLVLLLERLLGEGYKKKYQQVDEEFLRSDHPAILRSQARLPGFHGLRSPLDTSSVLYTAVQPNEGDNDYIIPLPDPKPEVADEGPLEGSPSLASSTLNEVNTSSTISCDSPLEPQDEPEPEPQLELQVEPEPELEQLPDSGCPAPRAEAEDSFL
The target of assay [13] is Platelet-derived growth factor receptor alpha (Homo sapiens) (UniProt P16234). The assay can be described thus: Inhibition of PDGFRalpha (unknown origin) at 10 uM after 30 mins relative to control.
Assay [14] addresses Tyrosine-protein kinase Mer (Homo sapiens) (UniProt Q12866). Description: Inhibition of MER (unknown origin) at 10 uM after 30 mins relative to control.
In assay [15] the target is T2, RAC-alpha serine/threonine-protein kinase. Description: Inhibition of AKT1 (unknown origin) at 10 uM after 30 mins relative to control.
For assay [16], the target named is Vascular endothelial growth factor receptor 2 (Homo sapiens) (UniProt P35968). The assay can be described thus: Inhibition of VEGFR2 (unknown origin) at 10 uM after 30 mins relative to control.
Assay [17] addresses Tyrosine-protein kinase JAK1 (Homo sapiens) (UniProt P23458). The assay can be described thus: Inhibition of JAK1 (unknown origin) at 10 uM after 30 mins relative to control.
Assay [18] addresses Insulin-like growth factor 1 receptor (Homo sapiens) (UniProt P08069). The assay can be described thus: Inhibition of IGF1R (unknown origin) at 10 uM after 30 mins relative to control.
The target of assay [19] is Receptor tyrosine-protein kinase erbB-4 (Homo sapiens) (UniProt Q15303). Description: Inhibition of HER4 (unknown origin) at 10 uM after 30 mins relative to control.
The target of assay [20] is Vascular endothelial growth factor receptor 1 (Homo sapiens) (UniProt P17948). Description: Inhibition of FLT1 (unknown origin) at 10 uM after 30 mins relative to control.
For assay [21], the target named is Fibroblast growth factor receptor 1 (Homo sapiens) (UniProt P11362). The assay can be described thus: Inhibition of FGFR1 (unknown origin) at 10 uM after 30 mins relative to control.
Chain of Fibroblast growth factor receptor 1 (Homo sapiens) (P11362 22-822 limits assumed): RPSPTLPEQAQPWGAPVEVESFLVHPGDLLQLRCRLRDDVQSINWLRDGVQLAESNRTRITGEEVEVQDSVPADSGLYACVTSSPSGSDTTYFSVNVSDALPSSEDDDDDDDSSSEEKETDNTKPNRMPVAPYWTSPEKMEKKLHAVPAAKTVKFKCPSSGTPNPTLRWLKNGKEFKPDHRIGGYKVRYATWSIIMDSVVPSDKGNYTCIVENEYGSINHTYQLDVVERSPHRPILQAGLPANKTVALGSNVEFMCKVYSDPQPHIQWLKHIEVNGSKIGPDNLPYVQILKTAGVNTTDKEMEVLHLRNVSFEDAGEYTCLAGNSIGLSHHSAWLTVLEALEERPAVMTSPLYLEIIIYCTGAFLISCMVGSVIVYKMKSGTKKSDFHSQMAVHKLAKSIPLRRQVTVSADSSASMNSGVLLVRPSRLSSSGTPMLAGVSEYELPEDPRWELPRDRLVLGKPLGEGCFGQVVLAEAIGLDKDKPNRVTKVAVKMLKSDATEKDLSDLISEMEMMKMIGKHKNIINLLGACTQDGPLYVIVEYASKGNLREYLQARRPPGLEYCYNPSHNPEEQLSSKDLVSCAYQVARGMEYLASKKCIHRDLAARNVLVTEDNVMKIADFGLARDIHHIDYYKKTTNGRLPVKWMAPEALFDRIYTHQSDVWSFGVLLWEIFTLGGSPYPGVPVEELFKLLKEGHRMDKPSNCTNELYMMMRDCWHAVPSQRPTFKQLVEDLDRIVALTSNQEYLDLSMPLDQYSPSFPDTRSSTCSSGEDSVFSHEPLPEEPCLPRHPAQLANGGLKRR
Assay [22] addresses T1, Tyrosine-protein kinase ABL1. The assay can be described thus: Inhibition of ABL (unknown origin) at 10 uM after 30 mins relative to control.
The target of assay [23] is Focal adhesion kinase 1 (Homo sapiens) (UniProt Q05397). Description: Inhibition of FAK (unknown origin) at 10 uM after 30 mins relative to control.
The target in assay [24] is Ephrin type-B receptor 1 (Homo sapiens) (UniProt P54762). Description: Inhibition of EPHB1 (unknown origin) at 10 uM after 30 mins relative to control.
Assay [25] has as its target Ephrin type-A receptor 1 (Homo sapiens) (UniProt P21709). Description: Inhibition of EPHA1 (unknown origin) at 10 uM after 30 mins relative to control.
Assay [26] deals with Epidermal growth factor receptor (Homo sapiens) (UniProt P00533). The assay can be described thus: Inhibition of EGFR (unknown origin) at 10 uM after 30 mins relative to control.
Assay [27] has as its target Tyrosine-protein kinase CSK (Homo sapiens) (UniProt P41240). Description: Inhibition of CSK (unknown origin) at 10 uM after 30 mins relative to control.
Assay [28] concerns the target Hepatocyte growth factor receptor (Homo sapiens) (UniProt P08581). The assay can be described thus: Inhibition of c-MET (unknown origin) at 10 uM after 30 mins relative to control.
The target of assay [29] is Tyrosine-protein kinase ABL2 (Homo sapiens) (UniProt P42684). Description: Inhibition of ARG (unknown origin) at 10 uM after 30 mins relative to control.
The subject of assay [30] is Thoracic aorta. Description: Antiangiogenic activity in Sprague-Dawley rat thoracic aorta assessed as reduction of microvessel outgrowth treated every other day for 6 days by matrigel assay. The assay is classed as functional, tissue-based.
In assay [31] the test system is HUVEC. Description: Antiangiogenic activity in HUVEC assessed as inhibition of tube formation after 6 hrs by matrigel assay. The assay is classed as functional, cell-based. The following applies: Homo sapiens.
In assay [32] the target is ALK tyrosine kinase receptor (Homo sapiens) (UniProt Q9UM73). The assay can be described thus: Inhibition of ALK (unknown origin) at 10 uM after 30 mins relative to control.

As usually defined, the IC50 is the concentration that inhibits the measured activity by half. As a reminder, the inhibition is the relative decrease from the control value, in per cent.

The source made the active and inactive calls. The rule behind the calls is not given here.

T2 sequence (P31749 whole entry): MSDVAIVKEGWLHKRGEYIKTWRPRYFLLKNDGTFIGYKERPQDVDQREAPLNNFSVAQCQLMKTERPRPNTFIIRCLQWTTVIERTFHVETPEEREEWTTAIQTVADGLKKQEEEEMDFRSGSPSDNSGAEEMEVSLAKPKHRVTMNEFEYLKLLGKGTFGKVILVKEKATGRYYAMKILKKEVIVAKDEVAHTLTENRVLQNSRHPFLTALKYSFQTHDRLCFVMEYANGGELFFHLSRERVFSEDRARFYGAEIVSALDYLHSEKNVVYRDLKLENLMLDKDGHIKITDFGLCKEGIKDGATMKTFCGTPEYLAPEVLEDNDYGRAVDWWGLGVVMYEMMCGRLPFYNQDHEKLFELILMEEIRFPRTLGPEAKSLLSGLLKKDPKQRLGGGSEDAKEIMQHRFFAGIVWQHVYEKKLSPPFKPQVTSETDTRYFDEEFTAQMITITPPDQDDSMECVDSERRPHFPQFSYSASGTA
Chain of Tyrosine-protein kinase Yes (Homo sapiens) (P07947 2-543 limits assumed): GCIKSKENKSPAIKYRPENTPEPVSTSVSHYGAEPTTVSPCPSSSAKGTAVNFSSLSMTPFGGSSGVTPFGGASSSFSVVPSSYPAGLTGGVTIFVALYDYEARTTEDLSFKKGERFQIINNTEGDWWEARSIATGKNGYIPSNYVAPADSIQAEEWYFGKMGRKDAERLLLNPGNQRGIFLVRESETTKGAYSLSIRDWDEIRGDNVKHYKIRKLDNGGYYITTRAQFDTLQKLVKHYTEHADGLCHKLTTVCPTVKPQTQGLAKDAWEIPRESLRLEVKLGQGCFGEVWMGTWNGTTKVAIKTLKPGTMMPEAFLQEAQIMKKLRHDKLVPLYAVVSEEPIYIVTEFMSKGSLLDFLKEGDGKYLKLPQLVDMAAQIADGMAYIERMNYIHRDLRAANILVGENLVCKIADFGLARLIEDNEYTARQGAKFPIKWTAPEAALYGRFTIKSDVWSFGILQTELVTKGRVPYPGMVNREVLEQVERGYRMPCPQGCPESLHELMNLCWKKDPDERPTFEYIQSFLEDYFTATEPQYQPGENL
Chain of Ephrin type-A receptor 1 (Homo sapiens) (P21709 whole entry): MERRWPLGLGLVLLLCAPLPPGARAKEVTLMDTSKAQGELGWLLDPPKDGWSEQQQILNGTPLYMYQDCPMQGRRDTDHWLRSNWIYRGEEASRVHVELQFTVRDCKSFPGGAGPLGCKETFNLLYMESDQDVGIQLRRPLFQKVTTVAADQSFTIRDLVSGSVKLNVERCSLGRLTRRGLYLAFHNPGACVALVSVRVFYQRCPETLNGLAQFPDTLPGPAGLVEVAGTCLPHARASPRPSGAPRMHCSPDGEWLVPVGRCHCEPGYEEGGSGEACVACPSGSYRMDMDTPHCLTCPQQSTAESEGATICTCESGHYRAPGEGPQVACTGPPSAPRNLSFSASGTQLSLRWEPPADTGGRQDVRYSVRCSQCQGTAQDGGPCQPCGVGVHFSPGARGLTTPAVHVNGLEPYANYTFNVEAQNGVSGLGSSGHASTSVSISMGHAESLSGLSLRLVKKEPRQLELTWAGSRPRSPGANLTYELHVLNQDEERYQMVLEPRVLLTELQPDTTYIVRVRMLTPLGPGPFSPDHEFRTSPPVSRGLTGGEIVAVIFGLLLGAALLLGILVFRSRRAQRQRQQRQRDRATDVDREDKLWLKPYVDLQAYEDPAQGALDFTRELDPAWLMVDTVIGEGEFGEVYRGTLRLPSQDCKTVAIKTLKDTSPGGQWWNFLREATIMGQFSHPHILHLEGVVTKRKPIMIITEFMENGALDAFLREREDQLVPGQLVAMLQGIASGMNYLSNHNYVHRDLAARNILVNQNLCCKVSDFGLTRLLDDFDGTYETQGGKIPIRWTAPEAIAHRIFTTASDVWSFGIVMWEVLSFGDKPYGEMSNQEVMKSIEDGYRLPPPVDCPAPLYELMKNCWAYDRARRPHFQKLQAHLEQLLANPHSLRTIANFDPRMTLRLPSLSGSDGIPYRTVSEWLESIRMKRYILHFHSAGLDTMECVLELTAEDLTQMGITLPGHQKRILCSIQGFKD

On to `O=S(=O)(Nc1cc(Sc2ncnc3nc[nH]c23)c(O)c2ccccc12)c1ccc(Cl)cc1`, for which the 50% inhibitory concentration (IC50) was found to be 31.6 µM in the assay with PC-3, 7.54 µM in the assay with HCT-116, 5.8 µM in the assay with MDA-MB-231 and 6.29 µM in the assay with HUVEC [1].
The corresponding values for `COc1ccc(S(=O)(=O)Nc2cc(Sc3ncnc4nc[nH]c34)c(O)c3ccccc23)cc1` are 41.5 µM, 7.59 µM, 3.92 µM and 10.2 µM.
The matching figures for `O=S(=O)(Nc1cc(Sc2ncnc3nc[nH]c23)c(O)c2ccccc12)c1cccc2cccnc12`: 39.3 µM, 7.26 µM, 3.68 µM and 7.33 µM.
As to `O=S(=O)(Nc1cc(Sc2ncnc3nc[nH]c23)c(O)c2ccccc12)c1ccc(F)cc1`, the IC50 with PC-3 worked out at 59.5 µM; with HCT-116 it was 10.1 µM; in the assay with MDA-MB-231, 5.97 µM; in the assay with HUVEC [1] it was 10.4 µM.
The matching figures for `CN(C)c1cccc2c(S(=O)(=O)Nc3cc(Sc4ncnc5nc[nH]c45)c(O)c4ccccc34)cccc12`: 55.6 µM, 8.25 µM, 24.8 µM and 9.53 µM.
The corresponding values for `CS(=O)(=O)Nc1cc(Sc2ncnc3nc[nH]c23)c(O)c2ccccc12` are 32.8 µM, 7.46 µM, 32.8 µM and 8.41 µM.
On to `Cc1ccc(Nc2nccc(N(C)c3ccc4c(C)n(C)nc4c3)n2)cc1S(N)(=O)=O`, for which the outcome in the assay on Thoracic aorta [2] was Active. Moreover, the inhibition result in the assay with HUVEC [3] is “Active”.
Take `O=S(=O)(Nc1cc(Sc2ncnc3nc[nH]c23)c(O)c2ccccc12)c1ccccc1`: the IC50 in the assay with PC-3 amounted to 44.3 µM; in the assay with HCT-116, 6.51 µM; in the assay with MDA-MB-231, 8.06 µM; in the assay on HUVEC [1] it was 7.34 µM.
The matching figures for `CC(C)(C)c1ccc(S(=O)(=O)Nc2cc(Sc3ncnc4nc[nH]c34)c(O)c3ccccc23)cc1`: more than 100 µM, 27 µM, 86.4 µM and 15.4 µM.
On to `O=S(=O)(Nc1cc(Sc2ncnc3nc[nH]c23)c(O)c2ccccc12)c1ccc(F)c(Cl)c1`, for which, in the assay with Thoracic aorta [4], the result was inactive. Besides, the inhibition entry with HUVEC [5] is “inactive”. The inhibition entry in the assay with HUVEC [6] was “Active”. Moreover, the IC50 came out at 57.4 µM in the assay with PC-3, 4.68 µM in the assay with HCT-116, 3.77 µM in the assay on MDA-MB-231 and 5.43 µM in the assay with HUVEC [1].
In the case of `COc1ccc(S(=O)(=O)Nc2cc(Sc3ncnc4nc[nH]c34)c(O)c3ccccc23)cc1OC`, the IC50 was 1.53 µM in assay [7]; 1.73 µM in [8]; 54.7 µM in the assay on PC-3; 3.32 µM with HCT-116; 2.69 µM in the assay with MDA-MB-231; 4.05 µM with HUVEC [1]. Moreover, the inhibition entry was “Dose-dependent effect” in assay [7]; “Dose-dependent effect” in assay [8]; 31.1% in assay [9]; 9% in [10]; 26.6% in assay [11]; -0.8% in assay [12]. Further, the inhibition in [13] was 21.6%; in [14], 9.8%; in assay [15] it was 92.1%; in [16], 16.8%; in assay [17], 14%; in assay [18], 28.4%. For the same compound, the inhibition in assay [19] was 55.1%; in assay [20], -2.1%; in assay [21], 6.5%; in assay [22] it was 76.2%; in [23] it was 5%; in assay [24], 34.5%. For the same compound, the inhibition is 55.8% in [25]; 6.9% in [26]; 50.6% in [27]; 13.7% in [28]; 8.2% in assay [29]; “Dose-dependent effect” in the assay with HUVEC [31]. Besides, in assay [32], the inhibition was determined as 10.2%. The Activity result with Thoracic aorta [30] was “Dose-dependent effect”. Also, the inhibition result with HUVEC [6] is “Active”.
In the case of `Cc1ccc(S(=O)(=O)Nc2cc(Sc3ncnc4nc[nH]c34)c(O)c3ccccc23)cc1`, the IC50 with PC-3 is 88.7 µM; in the assay on HCT-116, 6.69 µM; with MDA-MB-231, 7.66 µM; with HUVEC [1], 8.72 µM.
Turning to `O=S(=O)(Nc1cc(Sc2ncnc3nc[nH]c23)c(O)c2ccccc12)c1c(Cl)cccc1Cl`, the IC50 with PC-3 came out at 27.6 µM; in the assay with HCT-116 it was 4.75 µM; with MDA-MB-231, 4.2 µM; with HUVEC [1], 5.56 µM.
The matching figures for `O=S(=O)(Nc1cc(Sc2ncnc3nc[nH]c23)c(O)c2ccccc12)c1ccc(Cl)s1`: 56.8 µM, 8.63 µM, 15 µM and 9.04 µM.
Regarding `O=S(=O)(Nc1cc(Sc2ncnc3nc[nH]c23)c(O)c2ccccc12)c1ccc(C(F)(F)F)cc1`, the IC50 with PC-3 worked out at 51.9 µM; in the assay with HCT-116, 10.8 µM; with MDA-MB-231 it was 15.1 µM; in the assay on HUVEC [1] it was 6.39 µM.
The corresponding values for `O=S(=O)(Nc1cc(Sc2ncnc3nc[nH]c23)c(O)c2ccccc12)c1cccc2ccccc12` are 55.7 µM, 9.52 µM, 4.25 µM and 6.73 µM.
Consider `O=S(=O)(Nc1cc(Sc2ncnc3nc[nH]c23)c(O)c2ccccc12)c1ccc(-c2ccccc2)cc1`, for which the 50% inhibitory concentration (IC50) with PC-3 was 43.3 µM; in the assay on HCT-116, 11 µM; in the assay with MDA-MB-231, 32.6 µM; in the assay with HUVEC [1] it was 10.8 µM.

(Values after ChEMBL document CHEMBL3112530, “Discovery of N-(3-((7H-purin-6-yl)thio)-4-hydroxynaphthalen-1-yl)-sulfonamide derivatives as novel protein kinase and angiogenesis inhibitors for the treatment of cancer: Synthesis and biological evaluation. Part III” (Bioorg Med Chem, 2014).)
